Each compound was assayed against T1, human CXCR3 (N-delta 4) (Homo sapiens, UniProt P49682) (assay: Human CXCR3 (N-delta 4) Scintillation Proximity Assay (SPA), [125I] IP-10 binding to Ba/F3-hCXCR3 membranes). Details: IC50 rating, Table 1; read-out: IC50.
T1 construct: CD8 leader (N); Flag; expressed in transfected cells; membranes prepared
T1 sequence (P49682 5-368 limits assumed): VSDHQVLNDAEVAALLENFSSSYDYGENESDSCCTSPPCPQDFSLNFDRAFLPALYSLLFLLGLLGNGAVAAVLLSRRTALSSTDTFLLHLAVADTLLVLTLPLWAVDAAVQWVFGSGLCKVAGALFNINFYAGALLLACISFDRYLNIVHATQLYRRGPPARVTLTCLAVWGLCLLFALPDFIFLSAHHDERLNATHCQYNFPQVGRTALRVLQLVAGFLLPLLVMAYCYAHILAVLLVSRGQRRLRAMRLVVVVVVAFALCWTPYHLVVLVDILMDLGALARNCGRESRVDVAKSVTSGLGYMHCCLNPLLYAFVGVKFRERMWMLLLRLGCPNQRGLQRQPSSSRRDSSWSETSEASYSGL
From the text: The inventive compounds can readily be evaluated to determine activity at the CXCR3 receptors by known methods, such as, for example, development of a human CXCR3 (N-delta 4) Binding Assay.
Cloning and Expression of Human CXCR3 (N-delta 4):
The DNA encoding human CXCR3 was cloned by PCR using human genomic DNA (Promega, Madison, Wis.) as a template. The PCR primers were designed based on the published sequence of human orphan receptor GPR9 (1) with incorporated restriction sites, a Kozak consensus sequence, CD8 leader and Flag tag. The PCR product was subcloned into the mammalian expression vector pME18Sneo, a derivative of the SR-alpha expression vector (designated as pME18Sneo-hCXCR3 (N-delta 4).
IL-3-dependent mouse pro-B cells Ba/F3 were transfected by electroporation in 0.4 ml Dulbecco's PBS containing 4×10^6 cells with 20 μg of pME18Sneo-hCXCR3 (N-delta 4) plasmid DNA. Cells were pulsed at 400 Volts, 100 OHMs, 960 μFd. The transfected cells were under selection with 1 mg/ml G418 (Life Technologies, Gaithersburg, Md.). G418-resistant Ba/F3 clones were screened for CXCR3 expression by specific binding of [^125I] IP-10 (NEN Life Science Products, Boston, Mass.).
Preparation of Ba/F3-hCXCR3 (N-delta 4) Membranes:
Ba/F3 cells expressing human CXCR3 (N-delta 4) were pelleted and resuspended in the lysis buffer containing 10 mM HEPES, pH 7.5 and Complete® protease inhibitors (1 tablet per 100 ml) (Boehringer Mannheim, Indianapolis, Ind.) at a cell density of 20×10^6 cells per ml. After 5 minute incubation on ice, cells were transferred to 4639 cell disruption bomb (Parr Instrument, Moline, Ill.) and applied with 1,500 psi of nitrogen for 30 minutes on ice. Large cellular debris was removed by centrifugation at 1,000×g. Cell membrane in the supernatant was sedimented at 100,000×g. The membrane was resuspended in the lysis buffer supplemented with 10% sucrose and stored at −80° C. Total protein concentration of the membrane was determined by BCA method from Pierce (Rockford, Ill.).
Human CXCR3 (N-delta 4) Scintillation Proximity Assay (SPA):
For each assay point, 2 μg of membrane was preincubated for 1 hr with 300 μg wheat germ agglutinin (WGA) coated SPA beads (Amersham, Arlington Heights, Ill.) in the binding buffer (50 mM HEPES, 1 mM CaCl2, 5 mM MgCl2, 125 mM NaCl, 0.002% NaN3, 1.0% BSA) at room temperature. The beads were spun down, washed once, resuspended in the binding buffer and transferred to a 96-well Isoplate (Wallac, Gaithersburg, Md.). 25 pM of [^125I] IP-10 with tested compounds in a series of titration were added to start the reaction. After 3 hr reaction at room temperature, the amount of [^125I] IP-10 bound to the SPA beads was determined with a Wallac 1450 Microbeta counter.
The Ki ratings for the various compounds of the present invention are given in the afore-mentioned Table 1. From these ratings and value ranges, it would be apparent to the skilled artisan that the compounds of the invention have excellent utility as CXCR3 receptor antagonists.

IC50 | SMILES
< 25 nM | CC[C@H]1CN(c2nc(N)c(C(N)=O)nc2Cl)CCN1C1CCN(Cc2ccc(Cl)cc2)CC1 [compound 1]
< 25 nM | CC[C@H]1CN(c2nc(N)c(C(N)=O)nc2Cl)CCN1C1CCN(Cc2ccc(Cl)cc2C(=N)N)CC1 [compound 2]
< 25 nM | CC[C@H]1CN(c2nc(N)c(C(N)=O)nc2Cl)CCN1C1CCN(C(CO)c2ccc(Cl)cc2)CC1 (stereo partly shown) [compound 3]
< 25 nM | CC[C@H]1CN(c2nc(N)c(C(N)=O)nc2Cl)CCN1C1CCN(Cc2ccc(Cl)cc2CCO)CC1 [compound 4]
< 25 nM | CC[C@H]1CN(c2nc(N)c(C(N)=O)nc2Cl)CCN1C1CCN([C@@H](CO)c2ccc(Cl)cc2)CC1 [compound 5]
< 25 nM | CC[C@H]1CN(c2nc(N)c(C(N)=O)nc2Cl)CCN1C1CCN(Cc2ccc(Cl)cc2CCN)CC1 [compound 6]
< 25 nM | CC[C@H]1CN(c2nc(N)c(C(N)=O)nc2Cl)CCN1C1CCN(Cc2ccc(Cl)cc2C(O)CO)CC1 (stereo partly shown) [compound 7]
< 25 nM | CC[C@H]1CN(c2nc(N)c(C(N)=O)nc2Cl)CCN1C1CCN(Cc2ccc(Cl)cc2C(N)=O)CC1 [compound 8]
< 25 nM | CC[C@H]1CN(c2nc(N)c(C(N)=O)nc2Cl)CCN1C1CCN(Cc2ccc(OC(F)(F)F)cc2)CC1 [compound 9]
< 25 nM | CC[C@H]1CN(c2nc(N)c(C(N)=O)nc2Cl)CCN1C1CCN(Cc2ccc(Cl)cc2F)CC1 [compound 10]
< 25 nM | CC[C@H]1CN(c2nc(N)c(C(N)=O)nc2Cl)CCN1C1CCN(Cc2ccc(Cl)cc2[C@H](O)C(N)=O)CC1 [compound 11]
< 25 nM | CC[C@H]1CN(c2nc(N)c(C(N)=O)nc2Cl)CCN1C1CCN(Cc2ccc(Cl)cc2[C@H](O)C(=O)NC)CC1 [compound 12]
< 25 nM | CC[C@H]1CN(c2nc(N)c(C(N)=O)nc2Cl)CCN1C1CCN(Cc2ccc(Cl)cc2CCNC(=O)OC(C)(C)C)CC1 [compound 13]
< 25 nM | CC[C@H]1CN(c2nc(N)c(C(N)=O)nc2Cl)CCN1C1CCN(Cc2ccc(Cl)cc2C(C)CO)CC1 (stereo partly shown) [compound 14]
< 25 nM | CC[C@H]1CN(c2nc(N)c(C(N)=O)nc2Cl)CCN1C1CCN(Cc2ccc(C(=O)OC)cc2)CC1 [compound 15]
< 25 nM | CC[C@H]1CN(c2nc(N)c(C(N)=O)nc2Cl)CCN1C1CCN(Cc2ccc(C#N)cc2)CC1 [compound 16]
< 25 nM | CC[C@H]1CN(c2nc(N)c(C(N)=O)nc2Cl)CCN1C1CCN(Cc2ccc(Cl)cc2CC(N)=O)CC1 [compound 17]
< 25 nM | CC[C@H]1CN(c2nc(N)c(C(N)=O)nc2Cl)CCN1C1CCN(Cc2ccc(Cl)cc2C(O)C(=O)N(C)C)CC1 (stereo partly shown) [compound 18]
< 25 nM | CC[C@H]1CN(c2nc(N)c(C(N)=O)nc2Cl)CCN1C1CCN(Cc2ccc(Cl)cc2C(C)(C)CO)CC1 [compound 19]
< 25 nM | CC[C@H]1CN(c2nc(N)c(C(N)=O)nc2Cl)CCN1C1CCN(Cc2ccc(Cl)cc2C#N)CC1 [compound 20]
< 25 nM | CC[C@H]1CN(c2nc(N)c(C(N)=O)nc2Cl)CCN1C1CCN(Cc2ccc(Cl)cc2CC(=O)NCC(C)O)CC1 (stereo partly shown) [compound 21]

Same assay, conditions: human; read-out: human IC50

IC50 | SMILES
< 1 nM | CC[C@H]1CN(c2nc(N)c(C(=O)NCCO)nc2Cl)CCN1C1CCN(Cc2ccc(Cl)cc2CO)CC1 [Formula 7]
< 1 nM | CC[C@H]1CN(c2nc(N)c(C(=O)NCCO)nc2Cl)CCN1C1CCN([C@@H](CO)c2ccc(Cl)cc2)CC1 [Formula 8]
< 1 nM | CC[C@H]1CN(c2nc(N)c(C(=O)NC)nc2Cl)CCN1C1CCN(Cc2ccc(Cl)cc2)CC1 [Formula 9]
< 1 nM | CC[C@H]1CN(c2ncc(C(=O)NC3CC3)nc2C)CCN1C1CCN(Cc2ccc(Cl)cc2)CC1 [Formula 10]
< 1 nM | CC[C@H]1CN(c2ncc(C(=O)NC3CC3)nc2C)CCN1C1CCN(Cc2ccc(F)c(F)c2)CC1 [Formula 11]
< 1 nM | CC[C@H]1CN(c2ncc(C(=O)NC3CC3)nc2C)CCN1C1CCN([C@@H](CO)c2ccc(Cl)cc2)CC1 [Formula 12]
< 1 nM | CC[C@H]1CN(c2ncc(C(N)=O)nc2C(F)(F)F)CCN1C1CCN(C(=O)c2ccc(Cl)cc2)CC1 [Formula 13]
